According to patent publication US20240124432A1, “HERBICIDAL COMPOUNDS” (SYNGENTA CROP PROTECTION AG, priority 2020, published 2024):

Experiments:
Type in all cases: in vivo
AMAPA [1] = experiment: Pre-emergence biological efficacy; conditions: Amaranthus palmeri, 312 h, evaluated after 13 days, read-out: damage to plant (100=total damage to plant; 0=no damage to plant)
Method in brief: (§1)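 Pots sown and kept one day in glasshouse (24/19° C., 16 h light), then sprayed with compound formulated in IF50 (50 g/l) diluted in 0.2% Genapol XO80 to final dose. Grown at 24/18° C., 15 h light, 50% humidity; damage scored after 13 days, 0 none to 100 total.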

ECHCG [2] = experiment: Pre-emergence biological efficacy; conditions: Echinochloa crus-galli, 312 h, evaluated after 13 days, read-out: damage to plant (100=total damage to plant; 0=no damage to plant)
Method in brief: as §1

EPHHL [3] = experiment: Pre-emergence biological efficacy; conditions: Euphorbia heterophylla, 312 h, evaluated after 13 days, read-out: damage to plant (100=total damage to plant; 0=no damage to plant)
Method in brief: as §1

IPOHE [4] = experiment: Pre-emergence biological efficacy; conditions: Ipomoea hederacea, 312 h, evaluated after 13 days, read-out: damage to plant (100=total damage to plant; 0=no damage to plant)
Method in brief: as §1

LOLPE [5] = experiment: Pre-emergence biological efficacy; conditions: Lolium perenne, 312 h, evaluated after 13 days, read-out: damage to plant (100=total damage to plant; 0=no damage to plant)
Method in brief: as §1

SETFA [6] = experiment: Pre-emergence biological efficacy; conditions: Setaria faberi, 312 h, evaluated after 13 days, read-out: damage to plant (100=total damage to plant; 0=no damage to plant)
Method in brief: as §1

AMAPA [7] = experiment: Post-emergence biological efficacy; conditions: Amaranthus palmeri, 312 h, evaluated after 13 days, read-out: damage to plant (100=total damage to plant; 0=no damage to plant)
Method in brief: (§2)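 Pot-grown plants were raised 14 days in a glasshouse (24/19 °C day/night, 16 h light), then sprayed post-emergence with an aqueous dilution of a 50 g/l IF50 formulation stock in 0.2% Genapol XO80. They were kept at 24/18 °C, 15 h light, 50% humidity, and visually scored for damage after 13 days (0 = none, 100 = total).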

CHEAL = experiment: Post-emergence biological efficacy; conditions: Chenopodium album, 312 h, evaluated after 13 days, read-out: damage to plant (100=total damage to plant; 0=no damage to plant)
Method in brief: as §2

DIGSA = experiment: Post-emergence biological efficacy; conditions: Digitaria sanguinalis, 312 h, evaluated after 13 days, read-out: damage to plant (100=total damage to plant; 0=no damage to plant)
Method in brief: as §2

ECHCG [8] = experiment: Post-emergence biological efficacy; conditions: Echinochloa crus-galli, 312 h, evaluated after 13 days, read-out: damage to plant (100=total damage to plant; 0=no damage to plant)
Method in brief: as §2

ELEIN = experiment: Post-emergence biological efficacy; conditions: 312 h, evaluated after 13 days, read-out: damage to plant (100=total damage to plant; 0=no damage to plant)
Method in brief: as §2

EPHHL [9] = experiment: Post-emergence biological efficacy; conditions: Euphorbia heterophylla, 312 h, evaluated after 13 days, read-out: damage to plant (100=total damage to plant; 0=no damage to plant)
Method in brief: as §2

IPOHE [10] = experiment: Post-emergence biological efficacy; conditions: Ipomoea hederacea, 312 h, evaluated after 13 days, read-out: damage to plant (100=total damage to plant; 0=no damage to plant)
Method in brief: as §2

LOLPE [11] = experiment: Post-emergence biological efficacy; conditions: Lolium perenne, 312 h, evaluated after 13 days, read-out: damage to plant (100=total damage to plant; 0=no damage to plant)
Method in brief: as §2

SETFA [12] = experiment: Post-emergence biological efficacy; conditions: Setaria faberi, 312 h, evaluated after 13 days, read-out: damage to plant (100=total damage to plant; 0=no damage to plant)
Method in brief: as §2

SMILES | pest or weed control at 250 g/ha (AMAPA [1]) | pest or weed control at 250 g/ha (ECHCG [2]) | pest or weed control at 250 g/ha (EPHHL [3]) | pest or weed control at 250 g/ha (IPOHE [4]) | pest or weed control at 250 g/ha (LOLPE [5]) | pest or weed control at 250 g/ha (SETFA [6]) | pest or weed control at 250 g/ha (AMAPA [7]) | pest or weed control at 250 g/ha (CHEAL) | pest or weed control at 250 g/ha (DIGSA) | pest or weed control at 250 g/ha (ECHCG [8]) | pest or weed control at 250 g/ha (ELEIN) | pest or weed control at 250 g/ha (EPHHL [9]) | pest or weed control at 250 g/ha (IPOHE [10]) | pest or weed control at 250 g/ha (LOLPE [11]) | pest or weed control at 250 g/ha (SETFA [12])
CCOC(=O)C1(C)CC(c2cc(-c3cc(C(F)(F)F)ccn3)c(F)cc2Cl)=NO1 (stereo not drawn) [Compound 1-319, Ethyl 3-[2-chloro-4-fluoro-5-[4-(trifluoromethyl)-2-pyridyl]-phenyl]-5-methyl-4H-isoxazole-5-carboxylate] | 40% | 30% | 20% | 0% | 10% | 0% | 80% | 90% | 80% | 60% | 40% | 80% | 100% | 10% | 70%
CCOC(=O)C1(C)CC(c2cc(-c3ncc(F)cc3Cl)c(F)cc2Cl)=NO1 (stereo not drawn) [Compound 1-331, Ethyl 3-[2-chloro-5-(3-chloro-5-fluoro-2-pyridyl)-4-fluoro-phenyl]-5-methyl-4H-isoxazole-5-carboxylate] | 100% | 90% | 100% | 60% | 80% | 100% | 100% | 100% | 100% | 100% | 100% | 100% | 100% | 100% | 100%
CCOC(=O)C1(C)CC(c2cc(-c3ncc(Cl)cc3C(F)(F)F)c(F)cc2Cl)=NO1 (stereo not drawn) [Compound 1-343, Ethyl 3-[2-chloro-5-[5-chloro-3-(trifluoromethyl)-2-pyridyl]-4-fluoro-phenyl]-5-methyl-4H-isoxazole-5-carboxylate] | 70% | 30% | 50% | 60% | 20% | 50% | 100% | 100% | 100% | 80% | 100% | 100% | 100% | 60% | 100%
CCOC(=O)C1(C)CC(c2cc(-c3ncc([N+](=O)[O-])cc3Cl)c(F)cc2Cl)=NO1 (stereo not drawn) [Compound 1-355, Ethyl 3-[2-chloro-5-(3-chloro-5-nitro-2-pyridyl)-4-fluoro-phenyl]-5-methyl-4H-isoxazole-5-carboxylate] | 0% | 10% | 20% | 20% | 20% | 10% | 100% | 60% | 50% | 50% | 50% | 80% | 70% | 50% | 40%
CCOC(=O)C1(C)CC(c2cc(-c3cc(C)cc(F)n3)c(F)cc2Cl)=NO1 (stereo not drawn) [Compound 1-367, Ethyl 3-[2-chloro-4-fluoro-5-(6-fluoro-4-methyl-2-pyridyl)-phenyl]-5-methyl-4H-isoxazole-5-carboxylate] | 0% | 0% | 0% | 0% | 0% | 0% | 0% | 20% | 50% | 40% | 20% | 30% | 40% | 0% | 40%
CCOC(=O)C1(C)CC(c2cc(-c3cncc(OC)c3)c(F)cc2Cl)=NO1 (stereo not drawn) [Compound 1-379, Ethyl 3-[2-chloro-4-fluoro-5-(5-methoxy-3-pyridyl)-phenyl]-5-methyl-4H-isoxazole-5-carboxylate] | 0% | 0% | 0% | 0% | 0% | 0% | 100% | 50% | 60% | 40% | 40% | 50% | 80% | 10% | 40%
CCOC(=O)C1(C)CC(c2cc(-c3cnc(F)c(F)c3)c(F)cc2Cl)=NO1 (stereo not drawn) [Compound 1-391, Ethyl 3-[2-chloro-5-(5,6-difluoro-3-pyridyl)-4-fluoro-phenyl]-5-methyl-4H-isoxazole-5-carboxylate] | 0% | 0% | 0% | 0% | 0% | 0% | 60% | 50% | 50% | 40% | 40% | 50% | 40% | 10% | 40%
CCOC(=O)C1(C)CC(c2cc(-c3cnc(F)c(Cl)c3)c(F)cc2Cl)=NO1 (stereo not drawn) [Compound 1-403, Ethyl 3-[2-chloro-5-(5-chloro-6-fluoro-3-pyridyl)-4-fluoro-phenyl]-5-methyl-4H-isoxazole-5-carboxylate] | 30% | 40% | 20% | 10% | 20% | 0% | 70% | 70% | 70% | 40% | 60% | 70% | 50% | 20% | 40%
CCOC(=O)C1(C)CC(c2cc(-c3cnc(F)c(OC)c3)c(F)cc2Cl)=NO1 (stereo not drawn) [Compound 1-415, Ethyl 3-[2-chloro-4-fluoro-5-(6-fluoro-5-methoxy-3-pyridyl)-phenyl]-5-methyl-4H-isoxazole-5-carboxylate] | 0% | 0% | 0% | 0% | 0% | 0% | 100% | 100% | 40% | 70% | 70% | 90% | 90% | 20% | 90%
CCOC(=O)C1(C)CC(c2cc(-c3cnc(Cl)c(Cl)c3)c(F)cc2Cl)=NO1 (stereo not drawn) [Compound 1-427, Ethyl 3-[2-chloro-5-(5,6-dichloro-3-pyridyl)-4-fluoro-phenyl]-5-methyl-4H-isoxazole-5-carboxylate] | 0% | 0% | 0% | 0% | 0% | 0% | 100% | 60% | 40% | 80% | 60% | 70% | 80% | 20% | 100%
